Results from ChEMBL document CHEMBL4261602, “Tri-armed ligands of G-quadruplex on heteroarene-fused anthraquinone scaffolds: Design, synthesis and pre-screening of biological properties” (Eur J Med Chem, 2018).
pIC50: −log10 of the molar value.

Columns and labels:
L1210 = experiment: Antiproliferative activity in mouse L1210 cells after 48 hrs by MTT assay; assay type: functional, cell-based; settings: L1210, 48 h
CCRF-CEM = experiment: Antiproliferative activity in human CEM cells after 72 hrs by MTT assay; assay type: functional, cell-based
HeLa = experiment: Antiproliferative activity in human HeLa cells after 72 hrs by MTT assay; assay type: functional, cell-based
Quadruplex DNA [1] = experiment: Stabilization of human FAM-5'-d(AGGGTTAGGGTTAGGGTTAGGG)-3'-BHQ1 telomeric G4 quadruplex DNA assessed as change in melting temperature at 1 uM by FRET assay; assay type: nucleic-acid assay
Quadruplex DNA [2] = experiment: Stabilization of human FAM-5'-d(AGGGTTAGGGTTAGGGTTAGGG)-3'-BHQ1 telomeric G4 quadruplex DNA assessed as change in melting temperature at 1 uM in presence of 50 fold excess of competitor ds26 oligonucleotide DNA by FRET assay; assay type: nucleic-acid assay
Quadruplex DNA [3] = experiment: Stabilization of human FAM-5'-d(AGGGTTAGGGTTAGGGTTAGGG)-3'-BHQ1 telomeric G4 quadruplex DNA assessed as binding constant at 1 uM by FRET assay; assay type: nucleic-acid assay
[4] = Stabilization of d(CAATCGGATCGAATTCGATCCGATTG) DNA (unknown origin) assessed as binding constant at 1 uM by FRET assay
[5] = Selectivity ratio of Kb for human FAM-5'-d(AGGGTTAGGGTTAGGGTTAGGG)-3'-BHQ1 telomeric G4 quadruplex DNA to Kb for d(CAATCGGATCGAATTCGATCCGATTG) DNA (unknown origin)
[6] = Drug uptake in human K562 cells at 1 uM within 15 mins by flow cytometry analysis; assay type: ADME, cell-based; settings: k562, 0.25 h

| Compound | pIC50 (L1210) | pIC50 (CCRF-CEM) | pIC50 (HeLa) | ΔTm (Quadruplex DNA [1]) | ΔTm (Quadruplex DNA [2]) | Kb (Quadruplex DNA [3]) | Kb [4] | Selectivity ratio [5] | Drug uptake [6] |
| --- | --- | --- | --- | --- | --- | --- | --- | --- | --- |
| N=C(N)NCCCNc1c2c(c(NCCCNC(=N)N)c3sc(C(=O)NCCNC(=N)N)cc13)C(=O)c1ccccc1C2=O | 5.05 | 4.92 | 4.77 | 21 °C | 21 °C | 44 ×10⁶ /M | – | – | – |
| N=C(N)NCCCNC(=O)c1cc2c(NCCNC(=N)N)c3c(c(NCCNC(=N)N)c2s1)C(=O)c1ccccc1C3=O | 4.89 | 4.89 | 4.82 | 20.5 °C | 19 °C | 40 ×10⁶ /M | 0.03 ×10⁶ /M | 1300 | Active |
| N=C(N)NCCCNC(=O)c1cc2c(NCCCNC(=N)N)c3c(c(NCCCNC(=N)N)c2o1)C(=O)c1ccccc1C3=O | 4.74 | 4.77 | 4.77 | 25 °C | 24 °C | 91 ×10⁶ /M | 0.02 ×10⁶ /M | 4550 | – |
| N=C(N)NCCNc1c2c(c(NCCNC(=N)N)c3sccc13)C(=O)c1ccccc1C2=O | – | – | 4.89 | 11 °C | 1 °C | 6 ×10⁶ /M | 0.1 ×10⁶ /M | 60 | Active |
| N=C(N)NCCCNC(=O)c1cc2c(NCCCNC(=N)N)c3c(c(NCCCNC(=N)N)c2s1)C(=O)c1ccccc1C3=O | 5.00 | 4.96 | 4.74 | 22 °C | 17 °C | 47 ×10⁶ /M | 0.03 ×10⁶ /M | 1700 | – |
| N=C(N)NCCNC(=O)c1cc2c(NCCNC(=N)N)c3c(c(NCCNC(=N)N)c2s1)C(=O)c1ccccc1C3=O | 4.92 | 4.80 | 4.74 | 20 °C | 10 °C | 33 ×10⁶ /M | 0.1 ×10⁶ /M | 300 | – |
| N=C(N)NCCNC(=O)c1cc2c(NCCNC(=N)N)c3c(c(NCCNC(=N)N)c2o1)C(=O)c1ccccc1C3=O | 5.05 | 4.92 | 4.85 | 21.3 °C | 20.3 °C | 46 ×10⁶ /M | 0.02 ×10⁶ /M | 2300 | – |

Second part, the molecule after the results:

| pIC50 (L1210) | pIC50 (CCRF-CEM) | pIC50 (HeLa) | ΔTm (Quadruplex DNA [1]) | ΔTm (Quadruplex DNA [2]) | Kb (Quadruplex DNA [3]) | Kb [4] | Selectivity ratio [5] | Drug uptake [6] | Compound |
| --- | --- | --- | --- | --- | --- | --- | --- | --- | --- |
| 4.72 | 4.74 | 4.96 | 18 °C | 13 °C | 22 ×10⁶ /M | 0.03 ×10⁶ /M | 850 | – | N=C(N)NCCNC(=O)c1cc2c(NCCCCCN)c3c(c(NCCCCCN)c2o1)C(=O)c1ccccc1C3=O |
| 4.77 | 4.82 | 4.85 | 18 °C | 15 °C | 22 ×10⁶ /M | 0.01 ×10⁶ /M | 1500 | – | N=C(N)NCCCNC(=O)c1cc2c(NCCCCCN)c3c(c(NCCCCCN)c2o1)C(=O)c1ccccc1C3=O |
| 5.00 | 4.96 | 5.05 | 20 °C | 14 °C | 29 ×10⁶ /M | 0.03 ×10⁶ /M | 950 | – | N=C(N)NCCCNC(=O)c1cc2c(NCCOCCN)c3c(c(NCCOCCN)c2s1)C(=O)c1ccccc1C3=O |
| 4.72 | 4.68 | 4.92 | 21 °C | 18 °C | 38 ×10⁶ /M | 0.01 ×10⁶ /M | 2800 | Active | N=C(N)NCCCNC(=O)c1cc2c(NCCCCCN)c3c(c(NCCCCCN)c2s1)C(=O)c1ccccc1C3=O |
| 4.92 | 4.80 | 4.96 | 22 °C | 18 °C | 45 ×10⁶ /M | 0.02 ×10⁶ /M | 2500 | – | N=C(N)NCCCNC(=O)c1cc2c(NCCCCN)c3c(c(NCCCCN)c2s1)C(=O)c1ccccc1C3=O |
